Data on 8 molecules can be found in PubChem BioAssay (NCI).

Among the test systems are CAKI-1 renal; COLO 205 colon; HOP-62 NSCLC; HT29 colon; OVCAR-4 ovarian; OVCAR-5 ovarian; SF-295 CNS; T-47D breast; TK-10 renal; U251 CNS.
Common to all, as to assay: NCI-60 cell line screen, 48 h

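Interpolation was linear, between the two tested concentrations surrounding the appropriate level; five concentrations were tested over 48 hours in 96-well plates. Abbreviation: GI50, concentration required for 50% inhibition of growth. Definition used: TGI = concentration required for complete inhibition of growth.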

Turning to `O=c1c2c(c3ccccc3n1-c1ccccc1)NC(=S)NC2c1ccc(Cl)cc1` (stereo not given), the GI50 with CAKI-1 renal is 3.16 µM; with COLO 205 colon, 8.09 µM; in the test on HOP-62 NSCLC, 4.83 µM; with HT29 colon, 4.69 µM; with OVCAR-4 ovarian, 5.66 µM; with OVCAR-5 ovarian, 8.8 µM. The GI50 was 1.34 µM in the test with SF-295 CNS, 20 µM in the test with T-47D breast, 9.62 µM in the test with TK-10 renal and 2.04 µM in the test on U251 CNS. In addition, the TGI with CAKI-1 renal is 27.1 µM; with COLO 205 colon it was 29.1 µM; in the test on HOP-62 NSCLC it was 56.3 µM; in the test on HT29 colon it was greater than 100 µM; in the test on OVCAR-4 ovarian it was greater than 100 µM; in the test on OVCAR-5 ovarian, 86.4 µM. For the same molecule, the TGI in the test with SF-295 CNS was 7.16 µM; in the test with T-47D breast, greater than 100 µM; with TK-10 renal, greater than 100 µM; in the test with U251 CNS, 24.8 µM.
For the molecule `O=[N+]([O-])c1ccc(Sc2nc(Cl)nc(NC3CCCC3)n2)cc1`, the GI50 is 3.9 µM in the test with CAKI-1 renal; greater than 10 µM in the test on COLO 205 colon; greater than 10 µM with HOP-62 NSCLC; greater than 10 µM with HT29 colon; greater than 10 µM with OVCAR-4 ovarian; greater than 10 µM in the test with OVCAR-5 ovarian. The GI50 in the test with SF-295 CNS, with T-47D breast, in the test with TK-10 renal and in the test with U251 CNS was greater than 10 µM throughout. Further, the TGI in the test on CAKI-1 renal, in the test on COLO 205 colon, in the test on HOP-62 NSCLC, in the test with HT29 colon, in the test with OVCAR-4 ovarian and with OVCAR-5 ovarian was greater than 10 µM throughout. The TGI with SF-295 CNS, in the test on T-47D breast, in the test with TK-10 renal and in the test with U251 CNS was greater than 10 µM each time.
As for `Cc1cccc2nc3cccc(C(=O)NCCNCCNCCNC(=O)c4cccc5nc6cccc(C)c6nc45)c3nc12`, the GI50 was 0.0461 µM in the test with CAKI-1 renal; less than 0.01 µM in the test on COLO 205 colon; less than 0.01 µM with HOP-62 NSCLC; less than 0.01 µM in the test with HT29 colon; 0.168 µM with OVCAR-4 ovarian; 0.12 µM with OVCAR-5 ovarian. For the same molecule, the GI50 was less than 0.01 µM in the test with SF-295 CNS, less than 0.0123 µM in the test with T-47D breast, less than 0.0147 µM in the test on TK-10 renal and less than 0.01 µM in the test on U251 CNS. For the same molecule, the TGI with CAKI-1 renal was 23.2 µM; with COLO 205 colon, 0.7 µM; with HOP-62 NSCLC, 1.19 µM; with HT29 colon it was 0.254 µM; with OVCAR-4 ovarian, 5.09 µM; in the test with OVCAR-5 ovarian, 11.1 µM. For the same molecule, the TGI in the test with SF-295 CNS was 1.11 µM; in the test with T-47D breast it was 8.67 µM; in the test on TK-10 renal, 0.846 µM; with U251 CNS, 1.04 µM.
In the case of `O=C1C(=O)c2ccccc2C(O)=C1CCCc1ccc(C2CCCC2)cc1`, the GI50 is 3.15 µM in the test with CAKI-1 renal; 6.82 µM in the test on COLO 205 colon; 8.04 µM in the test on HOP-62 NSCLC; 5.43 µM in the test with HT29 colon; 5.92 µM in the test on OVCAR-4 ovarian; 11 µM with OVCAR-5 ovarian. Further, the GI50 was 3.4 µM in the test on SF-295 CNS, 7.21 µM in the test on T-47D breast, 6.99 µM in the test on TK-10 renal and 5.3 µM in the test with U251 CNS. In addition, the TGI in the test on CAKI-1 renal stood at 11.8 µM; in the test on COLO 205 colon it was 54.3 µM; in the test on HOP-62 NSCLC it was 23.6 µM; with HT29 colon, 19.5 µM; with OVCAR-4 ovarian, 39.7 µM; with OVCAR-5 ovarian, 23.6 µM. In addition, the TGI in the test on SF-295 CNS was determined as 11 µM; with T-47D breast, 98 µM; in the test with TK-10 renal, 34.1 µM; in the test with U251 CNS, 33.6 µM.
On to `C[N+](C)(CCCCCC[N+](C)(C)CCCN1C(=O)c2cc3ccccc3cc2C1=O)CCCN1C(=O)c2cc3ccccc3cc2C1=O`, for which the GI50 with CAKI-1 renal, with COLO 205 colon, in the test on HOP-62 NSCLC, in the test on HT29 colon, in the test on OVCAR-4 ovarian and with OVCAR-5 ovarian was greater than 37.5 µM in each case. Moreover, the GI50 in the test with SF-295 CNS, with T-47D breast, in the test with TK-10 renal and in the test with U251 CNS was greater than 37.5 µM in each case. Moreover, the TGI with CAKI-1 renal, in the test on COLO 205 colon, with HOP-62 NSCLC, in the test with HT29 colon, in the test on OVCAR-4 ovarian and in the test with OVCAR-5 ovarian was greater than 37.5 µM throughout. The TGI with SF-295 CNS, in the test on T-47D breast, in the test with TK-10 renal and in the test on U251 CNS was greater than 37.5 µM in each case.
For the molecule `Nc1nc2c(nnn2C2OC(CO)C(O)C2O)c(=O)[nH]1` (stereo not given), the GI50 in the test with CAKI-1 renal was 0.567 µM; in the test on COLO 205 colon, 0.393 µM; in the test on HOP-62 NSCLC, 3.2 µM; with HT29 colon, 1.66 µM; in the test with OVCAR-4 ovarian it was 1.59 µM; in the test on OVCAR-5 ovarian, 13.3 µM. Besides, the GI50 is 1.21 µM with SF-295 CNS, 2.87 µM in the test with T-47D breast, 2.05 µM in the test on TK-10 renal and 2.96 µM in the test on U251 CNS. For the same molecule, the TGI is greater than 100 µM in the test on CAKI-1 renal; 1.67 µM with COLO 205 colon; greater than 100 µM with HOP-62 NSCLC; 42.6 µM with HT29 colon; greater than 100 µM in the test with OVCAR-4 ovarian; greater than 100 µM in the test with OVCAR-5 ovarian. The TGI was greater than 100 µM in the test on SF-295 CNS, greater than 100 µM in the test with T-47D breast, 32.6 µM with TK-10 renal and greater than 100 µM with U251 CNS.
With `O=S1(=O)NC2CCC3NS(=O)(=O)NC4CCC(N1)N4S(=O)(=O)N23` (stereo not given), the TGI in the test with CAKI-1 renal, in the test with COLO 205 colon, in the test with HOP-62 NSCLC, in the test with HT29 colon, in the test on OVCAR-4 ovarian and in the test on OVCAR-5 ovarian was greater than 100 µM throughout. Moreover, the TGI in the test with SF-295 CNS, in the test on T-47D breast, in the test with TK-10 renal and with U251 CNS was greater than 100 µM in each case.
For `COC(=O)c1ccc2c(c1)C(=O)c1c-2n(C)c(=O)c2cc(OC)c(OC)cc12`, the GI50 in the test with CAKI-1 renal is greater than 50 µM; in the test with COLO 205 colon it was greater than 50 µM; in the test with HOP-62 NSCLC, 17.7 µM; in the test with HT29 colon, greater than 50 µM; with OVCAR-4 ovarian, greater than 50 µM; in the test on OVCAR-5 ovarian it was greater than 50 µM. Besides, the GI50 was 34 µM with SF-295 CNS, greater than 50 µM in the test on T-47D breast, 32.1 µM with TK-10 renal and 19.8 µM with U251 CNS. Moreover, the TGI in the test on CAKI-1 renal, in the test on COLO 205 colon, in the test with HOP-62 NSCLC, in the test with HT29 colon, with OVCAR-4 ovarian and in the test on OVCAR-5 ovarian was greater than 50 µM throughout. The TGI in the test with SF-295 CNS, in the test on T-47D breast, with TK-10 renal and with U251 CNS was greater than 50 µM in each case.
